Data taken from patent US20210330603A1 (priority 2020, published 2021).

What was measured:
C. rodentium [1] = experiment: Pharmacological inhibition of MgI in C. rodentium infected mice (FIG. 23); type: in vivo, mouse
EHEC [2] = experiment: Western blots of secreted translocon components EspA and EspB, EHEC (LEE-encoded T3SS activity); type: cell-based, Escherichia coli O157:H7
QseC = target: T1, QseC (Escherichia coli O157:H7, UniProt Q8X524); experiment: Autophosphorylation of QseC in liposomes; type: biochemical
T1 construct: Myc (C); His (C); made in house; host or cells: E. coli BL21(DE3) (printed 'B121 DE3'), arabinose induction, Ni-NTA purification

EHEC 86-24 [3] = experiment: EspA immunoblot of EHEC grown with CBD; type: cell-based, Escherichia coli O157:H7; settings: 50 μM CBD
EHEC strain 86-24 = experiment: qPCR of espA in EHEC grown in LG-DMEM with CBD; type: cell-based, Escherichia coli O157:H7
Citrobacter rodentium = experiment: Cannabidiol treatment of C. rodentium infected mice (fecal colony counts); type: in vivo, mouse; settings: single dose one-day post-infection
EHEC 86-24 [4] = experiment: Growth rate and growth yield of EHEC with CBD; type: cell-based, Escherichia coli O157:H7
EHEC [5] = type: cell-based, Escherichia coli O157:H7
CpxA = target: T2, CpxA (Escherichia coli O157:H7, UniProt P0AE84); experiment: Autophosphorylation of CpxA in liposomes; type: biochemical; settings: 10 μM 2-AG, 120 seconds or 10 minutes
T2 construct: made in house; host or cells: E. coli BL21(DE3) (printed 'B121 DE3'), IPTG induction, Ni-NTA purification
T2 sequence (P0AE84 1-457): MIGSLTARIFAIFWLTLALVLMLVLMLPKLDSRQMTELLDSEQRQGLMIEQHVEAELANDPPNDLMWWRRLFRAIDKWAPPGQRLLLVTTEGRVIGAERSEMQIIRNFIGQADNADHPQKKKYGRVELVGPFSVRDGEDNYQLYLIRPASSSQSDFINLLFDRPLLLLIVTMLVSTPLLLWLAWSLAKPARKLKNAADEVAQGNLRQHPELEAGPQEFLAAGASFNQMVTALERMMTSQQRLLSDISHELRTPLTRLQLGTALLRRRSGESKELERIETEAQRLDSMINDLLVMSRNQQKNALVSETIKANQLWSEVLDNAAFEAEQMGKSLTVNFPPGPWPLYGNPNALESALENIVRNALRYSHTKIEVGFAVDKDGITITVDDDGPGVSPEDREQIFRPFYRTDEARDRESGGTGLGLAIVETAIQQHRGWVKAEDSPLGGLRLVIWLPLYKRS

FusK = experiment: qRT-PCR of LEE-encoded tir in EHEC ΔfusK; type: cell-based, Escherichia coli O157:H7; settings: 20 μM 2-AG, aerobic
S. Typhimurium [6] = experiment: Epithelial invasion assay, S. Typhimurium on HeLa cells; type: cell-based, Salmonella enterica serovar Typhimurium; settings: ST treated with 10 μM 2-AG prior to infection of HeLa cells
C. rodentium [7] = experiment: Growth kinetics of C. rodentium under LEE-inducing conditions (FIG. 11); type: cell-based, Citrobacter rodentium; settings: 10 μM 2-AG, microaerobic, DMEM-low glucose
C. rodentium [8] = type: cell-based, Citrobacter rodentium
EHEC [9] = experiment: Growth kinetics of EHEC under LEE-inducing conditions (FIG. 11); type: cell-based, Escherichia coli O157:H7; settings: 10 μM 2-AG, microaerobic, DMEM-low glucose
EHEC [10] = experiment: Western blots of lysate-associated EspA, EspB and Tir in EHEC; type: cell-based, Escherichia coli O157:H7; settings: late-log phase
EHEC [11] = experiment: Fluorescent actin staining (FAS) assay, EHEC pedestal formation on HeLa cells; type: cell-based, Escherichia coli O157:H7; settings: EHEC treated with 10 μM 2-AG prior to infection of HeLa cells
EHEC [12] = type: cell-based, Escherichia coli O157:H7; remark: listed apart in the source
S. Typhimurium [13] = experiment: SipA secretion by S. Typhimurium under SPI-1-inducing conditions; type: cell-based, Salmonella enterica serovar Typhimurium; settings: 10 μM 2-AG
S. Typhimurium [14] = experiment: Targeted qPCR of SPI-1 genes in S. Typhimurium; type: cell-based, Salmonella enterica serovar Typhimurium; settings: 10 μM 2-AG, SPI-1-inducing conditions, late-log phase
S. Typhimurium [15] = experiment: Macrophage infection, intramacrophagic survival of S. Typhimurium in J774.1 murine macrophages; type: cell-based, Salmonella enterica serovar Typhimurium
EHEC [16] = experiment: Growth curves of EHEC in the presence of AA and AG (FIG. 22); type: cell-based, Escherichia coli; settings: concentrations of 80 and 160 μM
Source text: (§1) FIG. 22. Growth curves for Staphylococcus aureus (left side graphs) and EHEC (right side graphs) in the presence of AA (top graphs) and AG (bottom graphs).
(§2) Some lipids are antimicrobial with respect to certain bacteria.

S. Typhimurium [17] = experiment: Growth curves of S. Typhimurium under SPI-1-inducing conditions; type: cell-based, Salmonella enterica serovar Typhimurium; settings: 10 μM 2-AG
S. Typhimurium [18] = experiment: Transcript levels of SPI-2 genes in S. Typhimurium; type: cell-based, Salmonella enterica serovar Typhimurium; settings: 10 μM 2-AG, SPI-2-inducing conditions, 3 hours
C. rodentium [19] = experiment: Western blots of secreted translocon components EspA and EspB, C. rodentium; type: cell-based, Citrobacter rodentium; settings: physiological concentrations of 2-AG, late-log phase
Staphylococcus aureus = experiment: Growth curves of Staphylococcus aureus in the presence of AA and AG (FIG. 22); type: cell-based
Source text: as §1, §2

[20] = physiological concentrations of 2-AG, late-log phase

T1 sequence (Q8X524 whole entry): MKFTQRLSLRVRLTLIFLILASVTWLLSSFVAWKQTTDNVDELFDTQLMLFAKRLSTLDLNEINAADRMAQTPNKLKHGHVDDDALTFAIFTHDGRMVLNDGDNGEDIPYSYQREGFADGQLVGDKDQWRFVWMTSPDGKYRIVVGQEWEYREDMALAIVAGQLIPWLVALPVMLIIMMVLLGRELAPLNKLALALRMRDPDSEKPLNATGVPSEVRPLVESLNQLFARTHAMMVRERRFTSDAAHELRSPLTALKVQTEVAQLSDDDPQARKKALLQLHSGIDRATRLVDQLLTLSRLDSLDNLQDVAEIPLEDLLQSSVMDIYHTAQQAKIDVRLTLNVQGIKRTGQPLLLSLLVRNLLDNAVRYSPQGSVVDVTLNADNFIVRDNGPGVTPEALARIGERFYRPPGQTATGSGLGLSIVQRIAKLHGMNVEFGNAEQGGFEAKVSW

## O=C(Oc1ccc([N+](=O)[O-])cc1)N1CCC(C(O)(c2ccc3c(c2)OCO3)c2ccc3c(c2)OCO3)CC1 [JZL184]
C. rodentium [1]
  colonization of cecum tissues by C. rodentium: decreases colonization of cecum tissues

## CCCCC/C=C\C/C=C\C/C=C\C/C=C\CCCC(=O)OC[C@@H](O)CO [1-AG, reference compound]
EHEC [2]; 1-AG in contrast to 2-AG, late-log phase
  LEE-encoded T3SS activity (EspA and EspB secretion): does not attenuate LEE-encoded T3SS activity

## CCCCC/C=C\C/C=C\C/C=C\C/C=C\CCCC(=O)NCCO [anandamide, reference compound]
EHEC [2]; anandamide 100 or 200 nM, late-log phase
  LEE activity (EspA and EspB secretion): does not alter LEE activity

## Cc1c(C(=O)NN2CCCCC2)nn(-c2ccc(Cl)cc2Cl)c1-c1ccc(I)cc1 [AM251, reference compound]
QseC; 6 μM 2-AG and AM251, 30 minutes, liposome system
  effect on 2-AG-mediated inhibition of QseC activity: prevented 2-AG-mediated inhibition of QseC activity

## C=C(C)[C@@H]1CCC(C)=C[C@H]1c1c(O)cc(CCCCC)cc1O [CBD, cannabidiol]
EHEC 86-24 [3]
  expression of EspA protein (immunoblot): reduced expression of EspA
EHEC strain 86-24; wt EHEC 86-24, 50 μM CBD
  decrease in expression of espA compared to the vehicle: 20.6 fold
EHEC strain 86-24; ΔqseC deletion strain, 50 μM CBD
  reduction in expression of espA between the control and CBD: 17.5 fold
Citrobacter rodentium
  ability of Citrobacter rodentium to colonize the intestines of mice: inhibited the ability
EHEC 86-24 [4]
  growth rate and growth yield: neither the growth rate nor the growth yield for the wt and ΔqseC deletion strains were significantly altered

## CCCCC/C=C\C/C=C\C/C=C\C/C=C\CCCC(=O)OC(CO)CO [2-AG, 2-arachidonoyl-glycerol]
EHEC [5]
  LEE transcription, targeted qPCR of LEE-encoded genes spanning its five operons: inhibitory effects of 2-AG on LEE transcription were confirmed
  transcription of Shiga toxin (stx2a): no transcriptional effect
CpxA
  activity of CpxA (autophosphorylation): did not inhibit
FusK
  activity of FusK: did not inhibit
S. Typhimurium [6]
  epithelial invasiveness: attenuated epithelial invasiveness
C. rodentium [7]
  growth of C. rodentium: did not correspond with altered growth
C. rodentium [8]
  expression of LEE-encoded genes in C. rodentium: decreased expression of LEE-encoded genes
EHEC [9]
  growth of EHEC: did not correspond with altered growth
EHEC [10]
  protein expression of EspA in EHEC lysates: significantly decreased
  protein expression of EspB in EHEC lysates: significantly decreased
  protein expression of Tir in EHEC lysates: significantly decreased
EHEC [11]
  pedestal formation on epithelial cells (A/E lesion formation): decreased pedestal formation
EHEC [12]
  differentially expressed KEGG pathways (RNAseq): significantly altered the expression four KEGG pathways
  expression of LEE-encoded genes (RNAseq): significant downregulation of numerous LEE-encoded genes
  non-LEE encoded genes differentially expressed (RNAseq): few non-LEE encoded genes were differentially expressed
S. Typhimurium [13]
  secretion of SipA: decreased secretion of SipA
S. Typhimurium [14]
  expression of hilD: inhibits expression
  expression of sipA: inhibits expression
  expression of sopB: inhibits expression
QseC; 6 μM 2-AG, 50 μM epinephrine, 30 minutes
  Epi-mediated activation of QseC: inhibited Epi-mediated activation of QseC
QseC; QseC reconstituted into liposomes
  QseC activation (autophosphorylation): significantly diminished
EHEC [2]; EHEC ΔfadL, 10 μM 2-AG
  LEE activity in isogenic fadL mutant: no longer inhibited
EHEC [2]; [20]
  EspA secretion, EHEC: significantly reduced
  EspB secretion, EHEC: significantly reduced
EHEC [2]; qseC isogenic mutant, 10 μM 2-AG
  LEE functional activity in the qseC mutant in EHEC: not affected
S. Typhimurium [15]
  survival within macrophages: decreased survival within macrophages
EHEC [16]
  growth of EHEC: does not inhibit growth
S. Typhimurium [17]
  S. Typhimurium growth kinetics: did not alter
S. Typhimurium [18]
  expression of ssaV: decreased expression
  expression of sseF: decreased expression
C. rodentium [19]
  EspA secretion, C. rodentium: significantly reduced
  EspB secretion, C. rodentium: significantly reduced

## CCCCC/C=C\C/C=C\C/C=C\C/C=C\CCCC(=O)O [Arachidonic acid]
Staphylococcus aureus
  growth of S. aureus: inhibits the growth
